Assays:
Format in all cases: in vivo
IPOHE [1] = assay: Pre-emergence biological efficacy; conditions: Ipomoea hederacea, 312 h, evaluated after 13 days, read-out: damage to plant (100=total damage to plant; 0=no damage to plant)
Procedure, shortened: (§1)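 Injury rating (0 = no damage, 100 = plant killed) taken 13 days after a single spray of compound at the chosen dose onto freshly sown pots held 1 day in the glasshouse beforehand.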

ECHCG [2] = assay: Pre-emergence biological efficacy; conditions: Echinochloa crus-galli, 312 h, evaluated after 13 days, read-out: damage to plant (100=total damage to plant; 0=no damage to plant)
Procedure, shortened: as §1

EPHHL [3] = assay: Pre-emergence biological efficacy; conditions: Euphorbia heterophylla, 312 h, evaluated after 13 days, read-out: damage to plant (100=total damage to plant; 0=no damage to plant)
Procedure, shortened: as §1

SETFA [4] = assay: Pre-emergence biological efficacy; conditions: Setaria faberi, 312 h, evaluated after 13 days, read-out: damage to plant (100=total damage to plant; 0=no damage to plant)
Procedure, shortened: as §1

LOLPE [5] = assay: Pre-emergence biological efficacy; conditions: Lolium perenne, 312 h, evaluated after 13 days, read-out: damage to plant (100=total damage to plant; 0=no damage to plant)
Procedure, shortened: as §1

AMAPA [6] = assay: Pre-emergence biological efficacy; conditions: Amaranthus palmeri, 312 h, evaluated after 13 days, read-out: damage to plant (100=total damage to plant; 0=no damage to plant)
Procedure, shortened: as §1

IPOHE [7] = assay: Post-emergence biological efficacy; conditions: Ipomoea hederacea, 312 h, evaluated after 13 days, read-out: damage to plant (100=total damage to plant; 0=no damage to plant)
Procedure, shortened: (§2)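 Plants grown 14 days in glasshouse, then sprayed post-emergence with compound formulated in IF50 and diluted in 0.2% Genapol XO80 to the desired dose. Damage scored after 13 days on a 0–100 scale (100 = total damage).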

ECHCG [8] = assay: Post-emergence biological efficacy; conditions: Echinochloa crus-galli, 312 h, evaluated after 13 days, read-out: damage to plant (100=total damage to plant; 0=no damage to plant)
Procedure, shortened: as §2

DIGSA = assay: Post-emergence biological efficacy; conditions: Digitaria sanguinalis, 312 h, evaluated after 13 days, read-out: damage to plant (100=total damage to plant; 0=no damage to plant)
Procedure, shortened: as §2

EPHHL [9] = assay: Post-emergence biological efficacy; conditions: Euphorbia heterophylla, 312 h, evaluated after 13 days, read-out: damage to plant (100=total damage to plant; 0=no damage to plant)
Procedure, shortened: as §2

ELEIN = assay: Post-emergence biological efficacy; conditions: 312 h, evaluated after 13 days, read-out: damage to plant (100=total damage to plant; 0=no damage to plant)
Procedure, shortened: as §2

CHEAL = assay: Post-emergence biological efficacy; conditions: Chenopodium album, 312 h, evaluated after 13 days, read-out: damage to plant (100=total damage to plant; 0=no damage to plant)
Procedure, shortened: as §2

SETFA [10] = assay: Post-emergence biological efficacy; conditions: Setaria faberi, 312 h, evaluated after 13 days, read-out: damage to plant (100=total damage to plant; 0=no damage to plant)
Procedure, shortened: as §2

LOLPE [11] = assay: Post-emergence biological efficacy; conditions: Lolium perenne, 312 h, evaluated after 13 days, read-out: damage to plant (100=total damage to plant; 0=no damage to plant)
Procedure, shortened: as §2

AMAPA [12] = assay: Post-emergence biological efficacy; conditions: Amaranthus palmeri, 312 h, evaluated after 13 days, read-out: damage to plant (100=total damage to plant; 0=no damage to plant)
Procedure, shortened: as §2

Row | Compound | pest or weed control at 250 g/ha (IPOHE [1]) [%] | pest or weed control at 250 g/ha (ECHCG [2]) [%] | pest or weed control at 250 g/ha (EPHHL [3]) [%] | pest or weed control at 250 g/ha (SETFA [4]) [%] | pest or weed control at 250 g/ha (LOLPE [5]) [%] | pest or weed control at 250 g/ha (AMAPA [6]) [%] | pest or weed control at 250 g/ha (IPOHE [7]) [%] | pest or weed control at 250 g/ha (ECHCG [8]) [%] | pest or weed control at 250 g/ha (DIGSA) [%] | pest or weed control at 250 g/ha (EPHHL [9]) [%] | pest or weed control at 250 g/ha (ELEIN) [%] | pest or weed control at 250 g/ha (CHEAL) [%] | pest or weed control at 250 g/ha (SETFA [10]) [%] | pest or weed control at 250 g/ha (LOLPE [11]) [%] | pest or weed control at 250 g/ha (AMAPA [12]) [%]
1 | CCOC(=O)C1(C)CC(c2cc(-c3cc(C(F)(F)F)cnc3F)c(F)cc2Cl)=NO1 (stereo not drawn) [Compound 1-235, Ethyl 3-[2-chloro-4-fluoro-5-[2-fluoro-5-(trifluoromethyl)-3-pyridyl]phenyl]-5-methyl-4H-isoxazole-5-carboxylate] | 60 | 0 | 50 | 0 | 0 | 100 | 100 | 60 | 70 | 100 | 100 | 100 | 100 | 60 | 100
2 | CCOC(=O)C1(C)CC(c2cc(-c3cnc(F)c(Cl)c3)c(F)cc2Cl)=NO1 (stereo not drawn) [Compound 1-403, Ethyl 3-[2-chloro-5-(5-chloro-6-fluoro-3-pyridyl)-4-fluoro-phenyl]-5-methyl-4H-isoxazole-5-carboxylate] | 10 | 40 | 20 | 0 | 20 | 30 | 50 | 40 | 70 | 70 | 60 | 70 | 40 | 20 | 70
3 | CCOC(=O)C1(C)CC(c2cc(-c3ccc(Cl)nn3)c(F)cc2Cl)=NO1 (stereo not drawn) [Compound 1-679, Ethyl 3-[2-chloro-5-(6-chloropyridazin-3-yl)-4-fluoro-phenyl]-5-methyl-4H-isoxazole-5-carboxylate] | 0 | 0 | 0 | 0 | 0 | 0 | 40 | 50 | 50 | 50 | 60 | 60 | 50 | 10 | 60
4 | CCOC(=O)C1(C)CC(c2cc(-c3ncc(C(F)(F)F)nc3Cl)c(F)cc2Cl)=NO1 (stereo not drawn) [Compound 1-811, Ethyl 3-[2-chloro-5-[3-chloro-5-(trifluoromethyl)pyrazin-2-yl]-4-fluoro-phenyl]-5-methyl-4H-isoxazole-5-carboxylate] | 0 | 70 | 100 | 50 | 10 | 100 | 70 | 50 | 40 | 80 | 90 | 60 | 100 | 70 | 80
